Results as given in patent US10479784B2, “Substituted pyrazin-2-amines as inhibitors of ATR kinase” (Vertex Pharmaceuticals Incorporated, priority 2008, dated 2019).

Molecular target: full-length ATR (Homo sapiens (Human), UniProt Q13535)
Test: ATR Inhibition Assay (radioactive-phosphate incorporation)
Type: biochemical
Conditions: read-out: ATR Ki
Outline: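 Full-length human ATR (5 nM) was assayed at 25 °C in 50 mM Tris/HCl pH 7.5, 10 mM MgCl2, 1 mM DTT, with 10 μM [γ-33P]ATP and 800 μM peptide, after 10-min compound preincubation. Reactions were stopped after 24 h, captured on phosphocellulose and counted; Ki(app) came from non-linear regression of initial rates.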

full-length ATR, sequence (Q13535 whole entry): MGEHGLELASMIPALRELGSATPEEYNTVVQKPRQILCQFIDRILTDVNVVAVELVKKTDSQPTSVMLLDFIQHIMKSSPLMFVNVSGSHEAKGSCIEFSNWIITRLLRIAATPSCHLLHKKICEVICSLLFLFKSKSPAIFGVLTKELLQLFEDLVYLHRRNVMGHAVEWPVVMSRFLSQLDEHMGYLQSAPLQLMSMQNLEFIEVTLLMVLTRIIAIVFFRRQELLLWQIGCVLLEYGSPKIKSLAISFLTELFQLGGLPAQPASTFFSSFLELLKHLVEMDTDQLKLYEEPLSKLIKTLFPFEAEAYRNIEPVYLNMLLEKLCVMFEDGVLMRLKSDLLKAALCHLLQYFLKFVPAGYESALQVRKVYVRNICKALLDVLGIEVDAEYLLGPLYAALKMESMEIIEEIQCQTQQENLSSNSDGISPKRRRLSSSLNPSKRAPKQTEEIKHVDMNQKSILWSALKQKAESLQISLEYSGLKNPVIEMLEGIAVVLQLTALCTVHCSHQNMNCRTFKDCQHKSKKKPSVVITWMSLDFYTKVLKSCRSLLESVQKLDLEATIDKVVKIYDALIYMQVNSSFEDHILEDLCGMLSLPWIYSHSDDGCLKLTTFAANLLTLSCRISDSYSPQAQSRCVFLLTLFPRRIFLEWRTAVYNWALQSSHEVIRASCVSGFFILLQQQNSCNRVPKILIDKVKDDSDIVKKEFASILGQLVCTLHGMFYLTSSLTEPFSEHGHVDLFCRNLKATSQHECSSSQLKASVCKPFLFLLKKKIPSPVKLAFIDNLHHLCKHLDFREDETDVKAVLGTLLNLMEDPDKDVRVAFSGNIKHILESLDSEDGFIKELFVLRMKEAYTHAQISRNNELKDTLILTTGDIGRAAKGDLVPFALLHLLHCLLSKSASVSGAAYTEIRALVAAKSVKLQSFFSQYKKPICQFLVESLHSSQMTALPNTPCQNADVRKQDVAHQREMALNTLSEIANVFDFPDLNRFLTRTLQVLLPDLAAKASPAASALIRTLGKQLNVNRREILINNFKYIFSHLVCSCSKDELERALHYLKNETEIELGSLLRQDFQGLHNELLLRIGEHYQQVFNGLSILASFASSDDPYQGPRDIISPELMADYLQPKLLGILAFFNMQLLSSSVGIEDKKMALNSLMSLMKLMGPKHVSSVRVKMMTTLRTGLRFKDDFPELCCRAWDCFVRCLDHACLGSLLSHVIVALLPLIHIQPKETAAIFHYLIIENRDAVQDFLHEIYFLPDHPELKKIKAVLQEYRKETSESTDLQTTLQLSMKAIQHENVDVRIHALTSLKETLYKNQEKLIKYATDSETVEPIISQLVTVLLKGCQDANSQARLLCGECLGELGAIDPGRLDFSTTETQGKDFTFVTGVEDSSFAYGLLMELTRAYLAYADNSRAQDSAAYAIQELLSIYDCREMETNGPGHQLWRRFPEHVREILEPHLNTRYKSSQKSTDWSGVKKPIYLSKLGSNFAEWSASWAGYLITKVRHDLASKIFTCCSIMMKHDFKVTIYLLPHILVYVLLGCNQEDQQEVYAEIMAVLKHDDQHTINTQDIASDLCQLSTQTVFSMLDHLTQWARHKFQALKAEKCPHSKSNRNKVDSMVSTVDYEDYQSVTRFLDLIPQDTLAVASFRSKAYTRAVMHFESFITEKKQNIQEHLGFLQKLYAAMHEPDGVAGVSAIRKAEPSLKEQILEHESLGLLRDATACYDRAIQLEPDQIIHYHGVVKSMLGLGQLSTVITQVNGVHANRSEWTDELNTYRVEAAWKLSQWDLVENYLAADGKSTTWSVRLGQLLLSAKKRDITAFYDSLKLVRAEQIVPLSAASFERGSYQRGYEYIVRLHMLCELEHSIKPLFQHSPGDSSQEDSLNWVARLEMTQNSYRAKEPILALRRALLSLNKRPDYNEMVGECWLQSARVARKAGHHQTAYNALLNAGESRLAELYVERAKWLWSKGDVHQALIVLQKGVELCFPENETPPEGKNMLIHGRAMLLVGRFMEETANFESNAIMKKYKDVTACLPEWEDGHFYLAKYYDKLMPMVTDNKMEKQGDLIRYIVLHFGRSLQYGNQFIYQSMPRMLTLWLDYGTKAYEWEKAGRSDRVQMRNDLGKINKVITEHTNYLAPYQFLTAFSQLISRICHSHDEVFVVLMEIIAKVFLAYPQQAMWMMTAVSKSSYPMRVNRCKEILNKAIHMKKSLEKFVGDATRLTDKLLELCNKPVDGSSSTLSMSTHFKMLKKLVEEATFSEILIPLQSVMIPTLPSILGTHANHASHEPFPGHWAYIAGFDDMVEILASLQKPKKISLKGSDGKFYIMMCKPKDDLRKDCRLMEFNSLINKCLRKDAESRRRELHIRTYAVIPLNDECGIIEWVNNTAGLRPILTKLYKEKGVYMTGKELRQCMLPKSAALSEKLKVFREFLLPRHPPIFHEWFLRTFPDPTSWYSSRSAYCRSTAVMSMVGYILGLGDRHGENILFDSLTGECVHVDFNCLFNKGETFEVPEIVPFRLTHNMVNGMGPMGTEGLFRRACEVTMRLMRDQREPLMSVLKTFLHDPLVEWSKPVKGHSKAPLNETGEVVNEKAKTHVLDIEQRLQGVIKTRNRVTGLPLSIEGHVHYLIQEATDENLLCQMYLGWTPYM

Ki [µM]	Structure (SMILES)
≤ 0.01	CN(C)C(=O)c1ccc(-c2cnc(N)c(-c3nnc(-c4ccsc4)o3)n2)cc1 [IA-262, 4-[5-amino-6-[5-(3-thienyl)-1,3,4-oxadiazol-2-yl]pyrazin-2-yl]-N,N-dimethyl-benzamide]
≤ 0.01	CN(C)CCS(=O)(=O)c1ccc(-c2cnc(N)c(-c3nnc(-c4ccccc4)o3)n2)cc1 [IA-169, 5-[4-(2-dimethylaminoethylsulfonyl)phenyl]-3-(5-phenyl-1,3,4-oxadiazol-2-yl)pyrazin-2-amine]
0.1 to 5	CC(C)S(=O)(=O)c1ccc(-c2cnc(N)c(-c3nnc(C(=O)NC4CCNC4)o3)n2)cc1 (stereo not drawn) [IA-114, 5-[3-amino-6-(4-isopropylsulfonylphenyl)pyrazin-2-yl]-N-pyrrolidin-3-yl-1,3,4-oxadiazole-2-carboxamide]
0.1 to 5	CN(C)C(=O)c1ccc(-c2cnc(N)c(-c3nnc(N4CCOCC4)o3)n2)cc1 [IA-45]
0.01 to 0.1	COc1ccccc1NC(=O)c1nc(-c2ccc3[nH]ccc3c2)cnc1N [Compound I-29, 3-amino-6-(1H-indol-5-yl)-N-(2-methoxyphenyl)pyrazine-2-carboxamide]
0.1 to 5	CC(C)S(=O)(=O)c1ccc(-c2cnc(N)c(-c3nnc(CCNC(=O)OC(C)(C)C)o3)n2)cc1 [IA-251, tert-butyl N-[2-[5-[3-amino-6-(4-isopropylsulfonylphenyl)pyrazin-2-yl]-1,3,4-oxadiazol-2-yl]ethyl]carbamate]
≤ 0.01	Nc1ncc(-c2ccc(S(=O)(=O)N3CCCC3)cc2)nc1-c1nc2ccccc2[nH]1 [Compound I-134, 3-(1H-benzo[d]imidazol-2-yl)-5-(4-(pyrrolidin-1-ylsulfonyl)phenyl) pyrazin-2-amine]
≤ 0.01	CC[S+]([O-])c1ccccc1-c1cnc(N)c(-c2nnc(-c3ccccc3)o2)n1 (stereo not drawn) [IA-256, 5-(2-ethylsulfinylphenyl)-3-(5-phenyl-1,3,4-oxadiazol-2-yl)pyrazin-2-amine]
≤ 0.01	CC(C)S(=O)(=O)c1ccc(-c2cnc(N)c(-c3nnc(-c4cccc(C5CCCN5)c4)o3)n2)cc1 (stereo not drawn) [IA-84, 5-(4-isopropylsulfonylphenyl)-3-[5-(3-pyrrolidin-2-ylphenyl)-1,3,4-oxadiazol-2-yl]pyrazin-2-amine]
≤ 0.01	CNCc1ccc(-c2nnc(-c3nc(-c4ccc(S(=O)(=O)C(C)C)cc4)cnc3N)o2)c(Cl)c1 [IA-306, 3-[5-[2-chloro-4-(methylaminomethyl)phenyl]-1,3,4-oxadiazol-2-yl]-5-(4-isopropylsulfonylphenyl)pyrazin-2-amine]
0.1 to 5	Nc1ncc(-c2ccnc(N3CCNCC3)c2)nc1-c1nc2ccccc2[nH]1 [Compound I-136, 3-(1H-benzo[d]imidazol-2-yl)-5-(2-(piperazin-1-yl)pyridin-4-yl)pyrazin-2-amine]
0.01 to 0.1	COc1ncccc1NC(=O)c1nc(-c2ccc(S(C)(=O)=O)cc2)cnc1N [VII-1]
≤ 0.01	CS(=O)(=O)c1ccc(-c2cnc(N)c(C(=O)Nc3ccc4cc[nH]c4n3)n2)cc1 [Compound V-12]
≤ 0.01	COc1ccc(C)cc1NC(=O)c1nc(-c2cccnc2)cnc1N [Compound I-108, 3-amino-N-(2-methoxy-5-methylphenyl)-6-(pyridin-3-yl)pyrazine-2-carboxamide]
0.01 to 0.1	CN(C)C(=O)c1ccc(-c2cnc(N)c(-c3nc4ccccc4[nH]3)n2)cc1 [Compound I-124, 4-(5-amino-6-(1H-benzo[d]imidazol-2-yl)pyrazin-2-yl)-N,N-dimethylbenzamide]
0.01 to 0.1	CC(C)S(=O)(=O)c1ccc(-c2cnc(N)c(-c3nnc(C(=O)N4CCCC(N)C4)o3)n2)cc1 (stereo not drawn) [IA-98, [5-[3-amino-6-(4-isopropylsulfonylphenyl)pyrazin-2-yl]-1,3,4-oxadiazol-2-yl]-(3-amino-1-piperidyl)methanone]
0.01 to 0.1	Nc1ncc(-c2ccc(C(=O)NCCN3CCCC3)cc2)nc1-c1nc2ccccc2[nH]1 [III-6, 4-(5-amino-6-(1H-benzo[d]imidazol-2-yl)pyrazin-2-yl)-N-(2-(pyrrolidin-1-yl)ethyl)benzamide]
0.01 to 0.1	Nc1ncc(-c2ccc(C(=O)N3CCNCC3)cc2)nc1C(=O)Nc1ccccc1 [Compound I-74, 3-amino-N-phenyl-6-(4-(piperazine-1-carbonyl)phenyl)pyrazine-2-carboxamide]
0.1 to 5	Nc1ncc(-c2cccnc2)nc1C(=O)Nc1cccc2c1OC(F)(F)O2 [Compound I-99, 3-amino-N-(2,2-difluorobenzo[d][1,3]dioxol-4-yl)-6-(pyridin-3-yl)pyrazine-2-carboxamide]
0.01 to 0.1	Cc1cccc(-c2nnc(-c3nc(-c4cccnc4)cnc3N)[nH]2)c1 [Compound I-141, 5-(pyridin-3-yl)-3-(5-m-tolyl-4H-1,2,4-triazol-3-yl)pyrazin-2-amine]
0.1 to 5	Nc1ncc(-c2ccccc2C(F)(F)F)nc1-c1nnc(-c2ccccc2)o1 [IA-174, 3-(5-phenyl-1,3,4-oxadiazol-2-yl)-5-[2(-trifluoromethyl)phenyl]pyrazin-2-amine]
0.01 to 0.1	NC(=O)c1ccc(-c2cnc(N)c(-c3nnc(-c4ccccc4)o3)n2)cc1 [IA-218, 4-[5-amino-6-(5-phenyl-1,3,4-oxadiazol-2-yl)pyrazin-2-yl]benzamide]

Ki [µM]	Structure (SMILES)
0.01 to 0.1	Nc1ncc(-c2ccsc2)nc1-c1nnc(-c2ccccc2)o1 [IA-104, 3-(5-phenyl-1,3,4-oxadiazol-2-yl)-5-(3-thienyl)pyrazin-2-amine]
≤ 0.01	CN(C)C(=O)c1ccc(-c2cnc(N)c(-c3nnc(-c4ccccc4)o3)n2)c(C(F)F)c1 [IA-126, 4-[5-amino-6-(5-phenyl-1,3,4-oxadiazol-2-yl)pyrazin-2-yl]-3-(difluoromethyl)-N,N-dimethyl-benzamide]
≤ 0.01	N#Cc1cc(C(=O)N2CCCNCC2)ccc1-c1cnc(N)c(-c2nnc(-c3ccccc3)o2)n1 [IA-20]
0.1 to 5	NC(=O)c1cccc(-c2cnc(N)c(C(=O)Nc3ccccc3)n2)c1 [Compound I-18, 3-amino-6-(3-carbamoylphenyl)-N-phenylpyrazine-2-carboxamide]
0.01 to 0.1	Nc1ncc(-c2ccccc2)nc1-c1nnc(-c2ccccc2)o1 [IA-49]
0.1 to 5	Nc1ncc(-c2cccc3cccnc23)nc1-c1nnc(-c2ccccc2)o1 [IA-216, 3-(5-phenyl-1,3,4-oxadiazol-2-yl)-5-(8-quinolyl)pyrazin-2-amine]
0.01 to 0.1	NCc1ccc(-c2nnc(-c3nc(-c4cccnc4)cnc3N)[nH]2)cc1 [Compound I-139, 3-(5-(4-(aminomethyl)phenyl)-4H-1,2,4-triazol-3-yl)-5-(pyridin-3-yl)pyrazin-2-amine]
0.01 to 0.1	CC(C)S(=O)(=O)c1ccc(-c2cnc(N)c(-c3nnc(CCN)o3)n2)cc1 [IA-214, 3-[5-(2-aminoethyl)-1,3,4-oxadiazol-2-yl]-5-(4-isopropylsulfonylphenyl)pyrazin-2-amine]
≤ 0.01	N#Cc1cnccc1-c1cnc(N)c(C(=O)Nc2nc3ccccc3[nH]2)n1 [Compound V-3]
≤ 0.01	C[S+]([O-])c1ccccc1-c1cnc(N)c(-c2nnc(-c3ccccc3)o2)n1 (stereo not drawn) [IA-241, 5-(2-methylsulfinylphenyl)-3-(5-phenyl-1,3,4-oxadiazol-2-yl)pyrazin-2-amine]
0.1 to 5	CCc1ccccc1-c1cnc(N)c(-c2nnc(-c3ccccc3)o2)n1 [IA-57]
0.01 to 0.1	CC(=O)Nc1ccc(-c2cnc(N)c(-c3nnc(-c4ccccc4)o3)n2)cc1 [IA-247, N-[4-[5-amino-6-(5-phenyl-1,3,4-oxadiazol-2-yl)pyrazin-2-yl]phenyl]acetamide]
0.1 to 5	Nc1ncc(-c2cccc3ccccc23)nc1-c1nnc(-c2ccccc2)o1 [IA-93, 5-(1-naphthyl)-3-(5-phenyl-1,3,4-oxadiazol-2-yl)pyrazin-2-amine]
0.01 to 0.1	CC#Cc1cc(C(=O)N(C)C)ccc1-c1cnc(N)c(-c2nnc(-c3ccccc3)o2)n1 [IA-268, 4-[5-amino-6-(5-phenyl-1,3,4-oxadiazol-2-yl)pyrazin-2-yl]-N,N-dimethyl-3-prop-1-ynyl-benzamide]
≤ 0.01	CNCc1ccc(-c2nnc(-c3nc(-c4ccc(S(=O)(=O)C(C)C)cc4)cnc3N)o2)c(C)c1 [IA-166, 5-(4-isopropylsulfonylphenyl)-3-[5-[2-methyl-4-(methylaminomethyl)phenyl]-1,3,4-oxadiazol-2-yl]pyrazin-2-amine]
≤ 0.01	CNCc1ccc(-c2nnc(-c3nc(-c4ccc(S(=O)(=O)C(C)C)cc4C(F)F)cnc3N)o2)cc1 [IA-322, 5-[2-(difluoromethyl)-4-isopropylsulfonyl-phenyl]-3-[5-[4-(methylaminomethyl)phenyl]-1,3,4-oxadiazol-2-yl]pyrazin-2-amine]
≤ 0.01	N#Cc1cnccc1-c1cnc(N)c(-c2nnc(-c3ccccc3)o2)n1 [IA-35]
0.1 to 5	COc1ccc(-c2cnc(N)c(C(=O)Nc3ccccc3)n2)cc1 [Compound I-1, 3-amino-6-(4-methoxyphenyl)-N-phenylpyrazine-2-carboxamide]
0.01 to 0.1	CN(C)C(=O)c1ccc(-c2cnc(N)c(-c3nnc(-c4cccc(CCO)c4)o3)n2)cc1 [IA-69, 4-[5-amino-6-[5-[3-(2-hydroxyethyl)phenyl]-1,3,4-oxadiazol-2-yl]pyrazin-2-yl]-N,N-dimethyl-benzamide]
≤ 0.01	CC(C)[S+]([O-])c1ccc(-c2cnc(N)c(-c3nnc(-c4ccccc4)o3)n2)cc1 (stereo not drawn) [IA-90, 5-(4-isopropylsulfinylphenyl)-3-(5-phenyl-1,3,4-oxadiazol-2-yl)pyrazin-2-amine]
0.01 to 0.1	Nc1ncc(-c2ccc(F)c(C(=O)N3CCOCC3)c2)nc1-c1nc2ccccc2[nH]1 [Compound I-131, (5-(5-amino-6-(1H-benzo[d]imidazol-2-yl)pyrazin-2-yl)-2-fluorophenyl) (morpholino)methanone]
0.01 to 0.1	CN(C)C(=O)c1ccc(-c2cnc(N)c(-c3nnc(-c4cscn4)o3)n2)cc1 [IA-180, 4-[5-amino-6-(5-thiazol-4-yl-1,3,4-oxadiazol-2-yl)pyrazin-2-yl]-N,N-dimethyl-benzamide]

Structure (SMILES)	Ki [µM]
CC(C)(C)OC(=O)N1CCCN(C(=O)c2ccc(-c3cnc(N)c(-c4nnc(-c5ccccc5)o4)n3)cc2)CC1 [IA-28]	≤ 0.01
